Tests used:
c-KIT = molecular target: T1, c-KIT (Homo sapiens, UniProt P10721); assay: c-KIT recombinant enzyme kinase assay (AlphaScreen); format: biochemical; conditions: 100 ATP, 8 pt
T1 construct: purchased Millipore 14-559K
Description: (§1) In order to determine the effect of compounds on FLT3 catalytic activity, kinase assays using recombinant enzymes and AlphaScreen® technology have been established. The catalytic activity of c-kit activity was also measured to determine selectivity of the compounds. When the kinases are catalytically active, they phosphorylate a biotinylated peptide substrate on tyrosine residues. Using AlphaScreen® technology, the ability of the compounds to affect the catalytic activity of the kinases can be measured quantitatively. The peptide substrate is immobilized by the AlphaScreen® Streptavidin Donor beads and, upon phosphorylation by a tyrosine kinase, can bind to AlphaScreen® Anti-Phosphotyrosine (PY20) Acceptor beads. Upon excitation of these beads with laser light at 680 nm, singlet oxygen is produced. This singlet oxygen is rapidly quenched, unless the AlphaScreen® Anti-Phosphotyrosine (PY20) Acceptor beads are in close proximity, in which case a proximity signal can be measured at 580 nm. In the presence of catalytic activity, there is a very strong proximity signal. Selective kinase inhibitors affect a decrease in this proximity signal through a decrease in tyrosine phosphorylation of the peptide substrate.
(§2) The assay was performed as summarized below.
(§3) Poly (Glu4-Tyr) Peptide, biotin conjugate [Biotin-GG(EEEEY)10EE] (SEQ ID NO: 4)
(§4) Final concentration=30 nM
(§5) Adenosine Triphosphate (ATP)
(§6) Final concentration for IC50 determination=10 μM (FLT3-D835Y or FLT3-ITD) or 100 μM (c-KIT)
(§7) AlphaScreen® Phosphotyrosine (PY20) Assay Kit
(§8) Final concentration=10 μg/mL
(§9) Dilute compounds in DMSO to 20× final concentration.
(§10) Add 1 μL of compound to each well of 384 well reaction plate (Perkin Elmer #6005359).
(§11) Mix enzyme and Poly (Glu4-Tyr) Peptide substrate at 1.33× final concentration in assay buffer.
(§12) Mix ATP at 5× final concentration in assay buffer.
(§13) Add 15 μL enzyme/substrate mixture to the reaction plate.
(§14) Add 4 μL of ATP to the reaction plate.
(§15) Mix Streptavidin Donor beads at 6× final concentration in Stop/Detection buffer.
(§16) Add 5 μL Streptavidin Donor beads to the reaction plate. Centrifuge 1 minute, shake to mix, and incubate at room temperature for 20 minutes.
(§17) Mix Anti-Phosphotyrosine (PY20) Acceptor beads at 6× final concentration in Stop/Detection buffer.
(§18) Add 5 μL Anti-Phosphotyrosine (PY20) beads to the reaction plate.
(§19) Centrifuge 1 minute, shake to mix, and incubate at room temperature for 60 minutes.
(§20) Read plate on Wallac EnVision™ 2103 Multilabel Reader.

FLT3-ITD = molecular target: T2, FLT3-ITD (Homo sapiens, UniProt P36888); assay: FLT3-ITD recombinant enzyme kinase assay (AlphaScreen); format: biochemical; conditions: 8 pt; read-out: FLT3_ITD 8 pt: IC50
T2 sequence (P36888 1-993): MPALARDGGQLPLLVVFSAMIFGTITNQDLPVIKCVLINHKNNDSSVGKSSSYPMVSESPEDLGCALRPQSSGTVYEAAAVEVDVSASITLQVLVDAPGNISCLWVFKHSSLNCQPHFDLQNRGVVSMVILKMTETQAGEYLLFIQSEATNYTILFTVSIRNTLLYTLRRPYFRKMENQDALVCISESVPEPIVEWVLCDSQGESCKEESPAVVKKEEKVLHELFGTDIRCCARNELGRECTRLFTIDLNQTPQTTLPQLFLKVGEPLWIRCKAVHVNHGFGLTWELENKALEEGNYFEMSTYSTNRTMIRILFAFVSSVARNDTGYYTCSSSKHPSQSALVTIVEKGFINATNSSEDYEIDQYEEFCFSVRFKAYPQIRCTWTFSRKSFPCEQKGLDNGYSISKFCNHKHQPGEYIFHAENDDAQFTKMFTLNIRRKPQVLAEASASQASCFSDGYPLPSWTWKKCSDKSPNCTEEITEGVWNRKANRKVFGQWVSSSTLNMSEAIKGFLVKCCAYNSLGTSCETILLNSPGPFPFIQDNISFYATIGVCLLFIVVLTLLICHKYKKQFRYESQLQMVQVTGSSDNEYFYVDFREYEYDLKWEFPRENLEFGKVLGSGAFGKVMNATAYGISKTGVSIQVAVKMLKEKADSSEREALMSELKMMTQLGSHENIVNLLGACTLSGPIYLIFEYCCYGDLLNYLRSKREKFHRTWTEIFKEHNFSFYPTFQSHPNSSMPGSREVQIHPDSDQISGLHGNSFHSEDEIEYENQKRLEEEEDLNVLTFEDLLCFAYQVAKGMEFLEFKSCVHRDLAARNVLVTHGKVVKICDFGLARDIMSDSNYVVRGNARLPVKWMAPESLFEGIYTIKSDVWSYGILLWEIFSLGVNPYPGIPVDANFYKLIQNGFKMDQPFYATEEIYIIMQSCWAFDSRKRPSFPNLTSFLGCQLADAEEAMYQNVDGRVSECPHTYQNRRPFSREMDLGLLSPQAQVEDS
Description: as §1, §2, §3, §4, §5, §6, §7, §8, §9, §10, §11, §12, §13, §14, §15, §16, §17, §18, §19, §20

FLT3-D835Y = molecular target: T3, FLT3-D835Y (Homo sapiens, UniProt P36888, D835Y); assay: FLT3-D835Y recombinant enzyme kinase assay (AlphaScreen); format: biochemical; conditions: 8 pt, GMean
T3 construct: purchased Invitrogen PV3967
T3 sequence (P36888 27-993 D835Y): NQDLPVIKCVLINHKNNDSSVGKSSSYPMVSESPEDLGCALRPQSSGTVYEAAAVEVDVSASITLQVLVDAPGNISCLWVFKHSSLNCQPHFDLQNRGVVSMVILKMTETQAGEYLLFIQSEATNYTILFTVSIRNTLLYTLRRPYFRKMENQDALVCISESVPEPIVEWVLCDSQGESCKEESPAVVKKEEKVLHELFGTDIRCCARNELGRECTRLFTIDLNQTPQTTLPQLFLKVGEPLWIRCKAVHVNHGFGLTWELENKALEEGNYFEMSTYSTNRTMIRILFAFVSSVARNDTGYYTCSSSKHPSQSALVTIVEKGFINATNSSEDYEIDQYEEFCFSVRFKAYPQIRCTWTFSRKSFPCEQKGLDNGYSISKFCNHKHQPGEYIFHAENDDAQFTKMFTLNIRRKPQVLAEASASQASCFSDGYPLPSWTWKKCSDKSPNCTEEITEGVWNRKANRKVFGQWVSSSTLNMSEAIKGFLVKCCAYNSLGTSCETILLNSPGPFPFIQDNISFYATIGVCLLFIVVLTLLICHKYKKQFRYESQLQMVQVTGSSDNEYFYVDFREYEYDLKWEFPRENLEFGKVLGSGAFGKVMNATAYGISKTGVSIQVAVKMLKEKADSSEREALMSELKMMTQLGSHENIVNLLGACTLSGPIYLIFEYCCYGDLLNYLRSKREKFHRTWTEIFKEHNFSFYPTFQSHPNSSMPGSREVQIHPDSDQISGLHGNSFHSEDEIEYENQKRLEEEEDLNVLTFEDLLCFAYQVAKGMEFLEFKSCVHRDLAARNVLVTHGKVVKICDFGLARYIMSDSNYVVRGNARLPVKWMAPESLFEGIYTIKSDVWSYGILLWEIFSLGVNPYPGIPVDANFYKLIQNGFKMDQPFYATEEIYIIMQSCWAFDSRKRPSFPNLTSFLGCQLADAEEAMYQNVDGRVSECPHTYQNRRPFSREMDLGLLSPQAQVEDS
Description: as §1, §2, §3, §4, §5, §6, §7, §8, §9, §10, §11, §12, §13, §14, §15, §16, §17, §18, §19, §20

[1] = tested on: MOLM-14 D835Y (endogenous FLT3 ITD and transfected FLT3 D835Y); assay: MOLM-14 D835Y cell proliferation assay (CellTiter-Glo); format: cell-based; conditions: Homo sapiens, MOLM-14, 72 h; 3 d growth, GMean
Outline: (§21)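 MOLM-14 cells (FLT3 ITD) carrying D835Y or F691L, 1×10^4 cells/well, eight 1:3 dilutions from 1 μM final, 0.2% DMSO, 3 days at 37 °C, 5% CO2. Viability by CellTiter-Glo luminescence (ATP content); IC50 from concentration-response.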

BA/F3-FLT3-ITD + D835Y = molecular target: T4, BA/F3-FLT3-ITD + D835Y (Homo sapiens, UniProt P36888, D835Y, cells depend on it, form not given); assay: Engineered BA/F3 cell growth assay, FLT3 ITD/D835Y; format: cell-based, murine; conditions: 3 d growth
T4 sequence (P36888 with tags, fused parts or gaps INS600HVDFREYEYD/D835Y): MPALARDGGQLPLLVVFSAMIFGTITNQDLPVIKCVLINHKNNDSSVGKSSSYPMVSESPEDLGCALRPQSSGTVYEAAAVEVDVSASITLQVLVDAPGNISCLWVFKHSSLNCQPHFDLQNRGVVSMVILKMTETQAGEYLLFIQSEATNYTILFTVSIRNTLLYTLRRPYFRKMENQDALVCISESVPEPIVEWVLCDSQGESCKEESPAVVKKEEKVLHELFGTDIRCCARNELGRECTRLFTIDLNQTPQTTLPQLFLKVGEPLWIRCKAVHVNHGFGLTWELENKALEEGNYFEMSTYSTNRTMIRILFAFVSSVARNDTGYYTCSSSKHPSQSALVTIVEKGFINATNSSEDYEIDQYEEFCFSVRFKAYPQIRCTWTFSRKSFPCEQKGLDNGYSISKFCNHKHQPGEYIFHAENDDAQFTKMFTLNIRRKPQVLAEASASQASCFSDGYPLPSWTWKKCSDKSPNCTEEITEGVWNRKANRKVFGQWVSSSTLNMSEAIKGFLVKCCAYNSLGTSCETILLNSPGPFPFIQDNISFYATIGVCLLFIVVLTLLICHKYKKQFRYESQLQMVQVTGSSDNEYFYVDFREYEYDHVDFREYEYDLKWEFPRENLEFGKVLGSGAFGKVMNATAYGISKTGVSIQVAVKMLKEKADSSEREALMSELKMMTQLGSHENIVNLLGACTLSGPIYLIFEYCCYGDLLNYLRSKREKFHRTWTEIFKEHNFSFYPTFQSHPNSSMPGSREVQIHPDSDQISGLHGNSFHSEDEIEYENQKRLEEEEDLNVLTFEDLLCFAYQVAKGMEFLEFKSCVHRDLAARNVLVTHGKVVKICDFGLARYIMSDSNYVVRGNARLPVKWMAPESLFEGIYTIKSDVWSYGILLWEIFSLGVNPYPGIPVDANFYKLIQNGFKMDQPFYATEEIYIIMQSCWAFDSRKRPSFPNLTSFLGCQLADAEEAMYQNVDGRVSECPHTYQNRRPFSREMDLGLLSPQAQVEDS
Outline: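 IC50 derived from CellTiter-Glo ATP luminescence after 3 days at 37 °C, 5% CO2, over eight 1:3 dilutions from 1 μM (0.2% DMSO final). Cells: IL-3-independent murine Ba/F3 expressing full-length FLT3 ITD/D835Y, 1×10^4 per well.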

[2] = tested on: MOLM-14 F691L (endogenous FLT3 ITD and transfected FLT3 F691L); assay: MOLM-14 F691L cell proliferation assay (CellTiter-Glo); format: cell-based; conditions: Homo sapiens, MOLM-14, 72 h; 3 d growth, GMean
Outline: as §21

T1 sequence (P10721 26-976): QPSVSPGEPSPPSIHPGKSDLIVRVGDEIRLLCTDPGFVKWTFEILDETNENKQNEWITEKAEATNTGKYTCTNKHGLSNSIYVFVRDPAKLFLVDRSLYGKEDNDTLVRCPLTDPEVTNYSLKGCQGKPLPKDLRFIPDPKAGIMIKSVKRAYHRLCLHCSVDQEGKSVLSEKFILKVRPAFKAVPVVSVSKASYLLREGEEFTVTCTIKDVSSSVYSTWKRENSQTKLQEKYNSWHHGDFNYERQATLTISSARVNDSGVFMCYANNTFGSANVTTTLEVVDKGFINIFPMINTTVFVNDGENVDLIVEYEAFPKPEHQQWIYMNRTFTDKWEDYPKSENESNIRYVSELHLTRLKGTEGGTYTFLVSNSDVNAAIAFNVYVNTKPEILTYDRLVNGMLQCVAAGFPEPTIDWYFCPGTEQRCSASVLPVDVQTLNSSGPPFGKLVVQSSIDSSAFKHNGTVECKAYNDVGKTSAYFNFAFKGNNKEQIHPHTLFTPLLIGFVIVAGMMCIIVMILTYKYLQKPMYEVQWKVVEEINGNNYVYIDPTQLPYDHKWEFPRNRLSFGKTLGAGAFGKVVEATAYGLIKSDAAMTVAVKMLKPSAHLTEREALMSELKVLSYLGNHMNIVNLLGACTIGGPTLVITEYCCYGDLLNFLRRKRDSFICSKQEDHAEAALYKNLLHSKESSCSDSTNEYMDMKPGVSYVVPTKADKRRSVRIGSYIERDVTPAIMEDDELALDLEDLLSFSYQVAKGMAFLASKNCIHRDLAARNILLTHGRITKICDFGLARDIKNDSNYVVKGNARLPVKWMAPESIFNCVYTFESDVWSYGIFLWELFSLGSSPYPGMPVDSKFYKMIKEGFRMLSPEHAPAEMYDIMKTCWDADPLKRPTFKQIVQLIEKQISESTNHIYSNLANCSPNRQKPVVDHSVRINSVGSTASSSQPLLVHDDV

SMILES | IC50 (c-KIT) [µM] | IC50 (FLT3-ITD) [µM] | IC50 (FLT3-D835Y) [µM] | IC50 [1] [µM] | GI50 (BA/F3-FLT3-ITD + D835Y) [µM] | IC50 [2] [µM]
Cn1cc(Nc2ncc(-c3ccc(CC(=O)Nc4cc(F)c(F)cn4)cc3)cn2)cn1 [Compound P-0163, N-(4,5-difluoro-2-pyridyl)-2-[4-[2-[(1-methylpyrazol-4-yl)amino]pyrimidin-5-yl]phenyl]acetamide] | 0.0001 to 10 | 0.0001 to 10 | – | – | – | –
COc1ncc(NC(=O)Cc2ccc(-c3cnc4[nH]nc(F)c4c3)cc2)cc1C(F)(F)F [Compound P-0245, 2-[4-(3-fluoro-1H-pyrazolo[3,4-b]pyridin-5-yl)phenyl]-N-[6-methoxy-5-(trifluoromethyl)-3-pyridyl]acetamide] | 0.0001 to 10 | – | 0.0001 to 10 | – | – | –
CCC(=O)c1c[nH]c2ncc(-c3ccc(CC(=O)Nc4cnc(OC)c(C(F)(F)F)c4)c(F)c3)cc12 [Compound P-0049, 2-[2-fluoro-4-(3-propanoyl-1H-pyrrolo[2,3-b]pyridin-5-yl)phenyl]-N-[6-methoxy-5-(trifluoromethyl)-3-pyridyl]acetamide] | 0.0001 to 10 | – | – | 0.0001 to 10 | 0.0001 to 10 | 0.0001 to 10
Cn1cc(Nc2ncc(-c3ccc(CC(=O)Nc4cnc(Cl)c(Cl)c4)cc3)cn2)cn1 [Compound P-0116, N-(5,6-dichloro-3-pyridyl)-2-[4-[2-[(1-methylpyrazol-4-yl)amino]pyrimidin-5-yl]phenyl]acetamide] | – | – | – | 0.0001 to 10 | 0.0001 to 10 | 0.0001 to 10
Cn1cc(Nc2ncc(-c3ccc(CC(=O)NCc4c(F)cccc4Cl)cc3)cn2)cn1 [Compound P-0127, N-[(2-chloro-6-fluoro-phenyl)methyl]-2-[4-[2-[(1-methylpyrazol-4-yl)amino]pyrimidin-5-yl]phenyl]acetamide] | – | – | – | 0.0001 to 10 | 0.0001 to 10 | 0.0001 to 10
Cc1ncc(NC(=O)Cc2ccc(-c3cnc(Nc4cn[nH]c4)nc3)c(F)c2)cc1C(F)(F)F [Compound P-0225, 2-[3-fluoro-4-[2-(1H-pyrazol-4-ylamino)pyrimidin-5-yl]phenyl]-N-[6-methyl-5-(trifluoromethyl)-3-pyridyl]acetamide] | – | – | – | 0.0001 to 10 | 0.0001 to 10 | 0.0001 to 10
Cn1cc(Nc2ncc(-c3ccc(CC(=O)NCc4c(Cl)cccc4Cl)cc3)cn2)cn1 [Compound P-0123, N-[(2,6-dichlorophenyl)methyl]-2-[4-[2-[(1-methylpyrazol-4-yl)amino]pyrimidin-5-yl]phenyl]acetamide] | – | – | – | 0.0001 to 10 | 0.0001 to 10 | 0.0001 to 10
CC(C)(C#N)c1ccc(NC(=O)Cc2ccc(-c3cnc4[nH]cc(F)c4c3)cc2F)cn1 [Compound P-0042, N-(6-(2-cyanopropan-2-yl)pyridin-3-yl)-2-(2-fluoro-4-(3-fluoro-1H-pyrrolo[2,3-b]pyridin-5-yl)phenyl)acetamide] | – | – | – | 0.0001 to 10 | 0.0001 to 10 | 0.0001 to 10

Source: patent US10160747B2, “Compounds and methods for kinase modulation, and indications therefor” (Plexxikon Inc., priority 2016, dated 2018)
